± gives the expanded uncertainty stated by the source.
Assay: excess molar enthalpy (molar enthalpy of mixing); xn = mol fraction of the nth substance listed
Conditions: 100 kPa, Liquid, Calvet calorimetry

excess molar enthalpy (1006 K, x2 = 0.0993) [kJ/mol] | excess molar enthalpy (813 K, x1 = 0.9) [kJ/mol] | excess molar enthalpy (1017 K, x1 = 0.0996) [kJ/mol] | excess molar enthalpy (1018 K, x1 = 0.5) [kJ/mol] | Structure (SMILES)
-2.2 ± 1.2 |  |  |  | [Li] [lithium] + [Zn]
 | 0.8 ± 0.6 | 0.5 ± 0.2 | 1.6 ± 0.4 | [Zn] [zinc] + [Ga]
